In US5399553A, “Tricyclic compound or salts thereof, method for producing the same and anti-microbial agent containing the same” (Wakunaga Seiyaku Kabushiki Kaisha, priority 1990, dated 1995):
≈ marks a conversion by molar mass, not a printed value.

Tests used:
[1] = Recovery in bile after oral administration (absorption and excretion); assay type: in vivo, rats; conditions: 20 mg/kg, rat, prepared as for urine (20 mg/10 ml/kg), disk method, read-out: Excretion Rate In Bile
Method: (§1) The absorbability and excretion after oral administration of the compounds, of the present invention were tested by measuring recovery in urine and in bile as follows.
A subject compound was prepared in the same manner as the recovery in urine and was orally administrated to the rats and bile was collected by using a polyethylene tube inserted into the choledochus in 24 hours. The concentration of the subject compound in the bile sample was examined in the same manner as the recovery in urine to obtain an excretion rate in bile for 24 hours.

[2] = test system: E. coli NIH JC-2 (IFO 12734); assay: Antimicrobial activity, minimum inhibitory concentration (MIC), E. coli NIH JC-2; assay type: cell-based; conditions: Escherichia coli, IFO12734
Method: (§2) The minimum inhibitory concentration (MIC: μg/ml) of typical compounds represented by general formula (1) of the present invention is measured by the standard method of Japanese literature "Chemotherapy, Volume 29, No. 1, pp. 76-79, 1981". The results are shown in Table 1 in which compound numbers are the same as those indicated in Examples.

[3] = test system: S. aureus 209p (IFO 12732); assay: Antimicrobial activity, minimum inhibitory concentration (MIC), S. aureus 209p; assay type: cell-based; conditions: Staphylococcus aureus
Method: as §2

P. aeruginosa (IFO 3445) = assay: Antimicrobial activity, minimum inhibitory concentration (MIC), P. aeruginosa; assay type: cell-based; conditions: Pseudomonas aeruginosa, IFO3445
Method: as §2

[4] = Recovery in urine after oral administration (absorption and excretion); assay type: in vivo, male JCL-SD rats; conditions: 20 mg/kg, rat, 20 mg/10 ml/kg in 0.5% methylcellulose, disk method, read-out: Excretion Rate In Urine
Method: as §1
To a group of three male JCL-SD rats (6 weeks old) fasted overnight, a subject compound was prepared to 20 mg/10 ml/kg with 0.5% of methylcellulose solution and was orally administrated. The sampling was carried out by collecting urine in 0 to 6 hours and 6 to 24 hours. The concentration of the subject compound in the urine was examined by a disk method by using Bacillus subtilis ATCC 33 as a testing bacillus to obtain an excretion rate in urine for 24 hours.

SMILES	dose excreted at 24 h [1]	MIC [2]	MIC [3]	MIC (P. aeruginosa (IFO 3445))	dose excreted at 24 h [4]
C[C@H]1CN(c2c(F)cc3c(=O)c(C(=O)O)cn4c3c2CCN4C)C[C@H]1N (single isomer, unassigned) [Compound 30, 4-(cis (-) 3-Amino-4-methylpyrrolidin-1-yl)-5-fluoro-2,3-dihydro-1-methyl-7-oxo-1H,7H-pyrido[3,2,1-ij]cinnoline-8-carboxylic acid]	3.8%	0.025 µg/mL (≈ 0.0694 µM)	0.1 µg/mL (≈ 0.277 µM)	0.2 µg/mL (≈ 0.555 µM)	59.7%
CN1CCc2c(OCC3(N)CC3)c(F)cc3c(=O)c(C(=O)O)cn1c23 [Compound 73]	–	0.1 µg/mL (≈ 0.288 µM)	0.78 µg/mL (≈ 2.25 µM)	0.78 µg/mL (≈ 2.25 µM)	–
